Source: patent publication US9629851B2, “ROCK in combination with MAPK pathway” (Stichting Het Nederlands Kanker Instituut—Antoni van …, priority 2013, dated 2017)

Assays:
[1] = test system: ERK inhibitor resistant sublines of BLM; experiment: inhibitor sensitivity of resistant sublines versus parental line; assay type: cell-based, human; conditions: sublines grown in 1 μM SCH772984
Method: NRAS Mutation: Q61R BLM, SK-MEL-147. BRAF mutation: Mel 95.03, mel 888. All cell lines were cultured in Dulbecco's modified Eagle's Medium (DMEM, Gibco) supplemented with 9% fetal calf serum (Sigma) and 1% glutamine. To generate MEK and ERK inhibitor resistant sublines, cells were plated on 10 cm dishes. Medium containing 1 μM SCH772984 was added the next day and changed twice a week. After 2 weeks colonies were picked and expanded in the presence of the inhibitor. In addition, multiple colonies per 10 cm dish were trypsinized and expanded to obtain resistant pools.
(§1) For short-term viability assays of inhibitors, cells were plated in 96-well format and treated on the next day with a dilution range of one inhibitor with or without a second inhibitor with a concentration as mentioned in the figure. After 3 days, cells were incubated with CellTiter-Blue (Promega) and fluorescence was measured with a TECAN Infinite M200 microplate reader. For proliferation assays, equal cell numbers were plated on 6 well dishes. The next day, cells were treated with one or more inhibitors and refreshed with medium with inhibitors every 3-4 days. Cells were stained with crystal violet after 7-11 days of treatment. […]
We assessed sensitivity to a panel of other inhibitors including ROCK inhibitors but observed mainly slight differences.

[2] = test system: NRAS mutant melanoma cell lines; experiment: short-term viability assay (CellTiter-Blue, 3 days); assay type: cell-based, human; conditions: treatment-naïve NRAS mutant melanoma cell lines; ROCK inhibitor added to MAPK/ERK pathway inhibitor
Method: FIG. 1A: NRAS mutant melanoma cell lines are sensitive to combinations of ROCK and MEK or ERK inhibitors; Cells were treated with a dilution series of ROCK inhibitor (left panel), MEK inhibitor (middle panel) or ERK inhibitor (right panel) either alone or in combination with MEK/ERK/ROCK inhibitor as indicated. After 3 days total cell numbers were determined with a Cell Titer-Blue assay. The y-axis represents the percentage of living cells.
as §1, with “days.” for “days. Cells were stained with crystal violet after 7-11 days of treatment.”
To model inhibitor sensitivity of treatment-naïve NRAS mutant melanoma we made use of a panel of human metastatic melanoma cell lines carrying activating mutations in NRAS codon 61 (R, K, N), including cell lines available in the prior art. […] Presence of the NRAS mutation and absence of exon 15 BRAF mutations has been determined by conventional sequencing. […]

[3] = test system: NRAS mutant melanoma cells SK-MEL-147; experiment: SK-MEL-147 xenograft in NOD/SCID mice; assay type: in vivo; conditions: GSK1120212 0.05 mg/kg or GSK269962A 10 mg/kg alone, oral gavage once daily
Method: Melanoma cells (5*10^5 SK-MEL-147) were subcutaneously injected into both flanks of NOD/SCID mice. Tumor sizes were measured with a caliper and tumor volume was calculated by the formula (a*b^2)/2 with ‘a’ being the longest diameter and ‘b’ the respective perpendicular diameter of the tumor. After the tumors reached a size of 20-100 mm3, mice received by oral gavage either vehicle, GSK1120212 (MEKi), (0.05 mg/kg), 10 mg/kg GSK269962A (ROCKi) or both drugs. N=10 for each group, except for ROCKi n=8. Error bars represent standard error of the mean (SEM).
Six to ten week old male NOD/SCID mice were subcutaneously injected with 5*10^5 cells into both flanks. After the tumors reached a size of 50-150 mm^3 mice were treated with 0.05 or 0.1 mg/kg MEK inhibitor (GSK1120212) and/or ROCK inhibitor (GSK266962A, 10 mg/kg). Both GSK1120212 and GSK269962A were applied by oral gavage (in 5% Tween80, 3.25% ethanol, DMSO for GSK1120212 and in 10% Tween80, 6.5% ethanol, 10% DMSO for GSK266962A). Tumors were measured twice a week with a caliper. Tumor volume was calculated by the formula (a*b2)/2, with ‘a’ being the longest diameter and b′ the respective perpendicular diameter of the tumor. Mice were euthanized by CO2 when tumors reached a volume of 1 cm3, according to a protocol approved by the Institutional Animal Experiment Ethics Committee. […]

[4] = test system: NRAS mutant melanoma patients; conditions: cited from earlier work
[5] = test system: BRAF mutant melanoma patients; conditions: cited from earlier work
c-Raf = c-Raf (Homo sapiens, UniProt P04049); conditions: B-Raf less than c-Raf; cited from earlier work
Chain of c-Raf (P04049 whole entry): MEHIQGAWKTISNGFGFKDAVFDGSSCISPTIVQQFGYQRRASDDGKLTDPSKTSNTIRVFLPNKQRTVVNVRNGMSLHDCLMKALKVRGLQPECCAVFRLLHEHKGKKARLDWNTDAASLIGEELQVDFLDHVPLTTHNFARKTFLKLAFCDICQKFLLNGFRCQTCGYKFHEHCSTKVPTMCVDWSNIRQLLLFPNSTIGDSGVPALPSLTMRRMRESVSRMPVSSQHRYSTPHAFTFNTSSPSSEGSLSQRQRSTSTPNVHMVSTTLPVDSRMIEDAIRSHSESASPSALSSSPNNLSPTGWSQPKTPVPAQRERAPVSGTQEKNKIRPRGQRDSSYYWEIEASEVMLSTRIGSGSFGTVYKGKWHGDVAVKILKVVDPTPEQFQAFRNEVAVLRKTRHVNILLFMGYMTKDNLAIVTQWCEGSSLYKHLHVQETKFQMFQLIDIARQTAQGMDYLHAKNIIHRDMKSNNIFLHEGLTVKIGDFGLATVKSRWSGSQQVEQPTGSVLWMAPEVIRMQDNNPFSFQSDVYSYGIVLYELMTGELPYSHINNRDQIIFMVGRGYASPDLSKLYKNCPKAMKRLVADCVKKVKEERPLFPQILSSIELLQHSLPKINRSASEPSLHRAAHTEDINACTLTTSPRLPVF

MEK = conditions: cited from earlier work

For `Oc1cccc(-c2nc(N3CCOCC3)c3oc4ncccc4c3n2)c1` [PI-103], the “sensitivity of resistant sublines compared with parental line” value [1] was “as sensitive to the dual PI3K/mTOR inhibitor PI-103 as the parental line”.
In the case of `CCn1c(-c2nonc2N)nc2cnc(Oc3cccc(NC(=O)c4ccc(OCCN5CCOCC5)cc4)c3)cc21` [GSK269962A], the “sensitization to MEK or ERK inhibitors” value [2] was “sensitizers” and the “effect as single agent” value [3] was “only a weak effect as single agents”.
For `Cn1cnc2c(F)c(Nc3ccc(Br)cc3F)c(C(=O)NOCCO)cc21` [MEK162], the “median time to develop resistance” value [4] is given as 3.7 months and the “median time to develop resistance” value [5] is given as 3.3 months.
In the case of `Cc1ccc(NC(=O)c2cccc(N(C)C)c2)cc1NC(=O)c1ccc(O)cc1` [ZM 336372], the “potency for B-Raf relative to c-Raf” value (c-Raf) is listed as “c-Raf, (B-Raf 10fold”.
For `O=S(=O)(c1cccc2cnccc12)N1CCCNCC1` [Fasudil], the “sensitization to MEK or ERK inhibitors” value [2] was “sensitizers”.
For `O=C(NOCC1CC1)c1ccc(F)c(F)c1Nc1ccc(I)cc1Cl` [PDI 84352], the “specificity and potency compared to other known MEK inhibitors” value (MEK) is given as “high degree of specificity and potency”.
